This is an account of results in patent US20250179078A1, “INHIBITORS OF NLRP3” (PTC THERAPEUTICS, INC., priority 2022, published 2025).

SMILES strings stand for the structures. pIC50: −log10 of the molar value.

For this test, the target named is T1, NLRP3 (Homo sapiens, UniProt Q96P20).
T1 construct: host or cells: THP-1 cells differentiated with PMA
T1 sequence (Q96P20 whole entry): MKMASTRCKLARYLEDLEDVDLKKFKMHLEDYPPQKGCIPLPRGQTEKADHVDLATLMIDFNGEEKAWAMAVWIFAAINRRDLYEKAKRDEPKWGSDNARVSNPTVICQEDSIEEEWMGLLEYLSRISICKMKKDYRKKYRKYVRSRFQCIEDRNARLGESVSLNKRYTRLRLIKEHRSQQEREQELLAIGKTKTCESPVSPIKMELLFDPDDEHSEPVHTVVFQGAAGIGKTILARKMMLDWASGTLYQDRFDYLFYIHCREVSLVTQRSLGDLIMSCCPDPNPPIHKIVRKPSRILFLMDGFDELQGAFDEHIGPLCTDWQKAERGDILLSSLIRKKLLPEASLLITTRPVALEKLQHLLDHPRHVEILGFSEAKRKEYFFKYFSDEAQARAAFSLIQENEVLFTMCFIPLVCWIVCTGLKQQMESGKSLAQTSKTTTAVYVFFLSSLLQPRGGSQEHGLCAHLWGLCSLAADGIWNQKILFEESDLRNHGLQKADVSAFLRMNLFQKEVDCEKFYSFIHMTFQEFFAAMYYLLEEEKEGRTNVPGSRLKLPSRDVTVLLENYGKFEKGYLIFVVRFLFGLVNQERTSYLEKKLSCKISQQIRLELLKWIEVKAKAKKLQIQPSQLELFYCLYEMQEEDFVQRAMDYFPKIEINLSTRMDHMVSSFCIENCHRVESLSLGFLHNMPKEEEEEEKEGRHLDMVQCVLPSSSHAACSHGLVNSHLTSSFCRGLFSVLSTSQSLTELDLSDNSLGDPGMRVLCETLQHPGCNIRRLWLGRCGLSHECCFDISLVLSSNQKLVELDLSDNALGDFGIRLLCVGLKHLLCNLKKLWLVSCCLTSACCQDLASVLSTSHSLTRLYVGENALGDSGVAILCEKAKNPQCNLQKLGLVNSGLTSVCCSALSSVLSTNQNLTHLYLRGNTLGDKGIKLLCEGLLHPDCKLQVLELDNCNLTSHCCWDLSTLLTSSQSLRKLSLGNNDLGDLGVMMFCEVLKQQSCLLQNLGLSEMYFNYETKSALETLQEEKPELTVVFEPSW
The experiment in a line: IL-1β Secretion Assay (NLRP3-dependent IL1β secretion in THP1 cells). The format is cell-based. The settings on record: PMA-differentiated THP-1 cells; compounds incubated 20 h; 2.5 μM Nigericin 3 h; HTRF IL-1β readout; read-out: IC50 IL-1β Inhibition. The method, boiled down:
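IL-1β in conditioned media, measured by HTRF after 3 h 2.5 μM nigericin stimulation, gave % inhibition fitted logistically for IC50. Before that, PMA-differentiated (100 ng/mL, 24 h) THP-1 cells were preincubated 20 h with 7 compound concentrations (3-fold serial, DMSO 1:200).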
On the technique in general: In TR-FRET formats the signal depends on donor and acceptor labels being close together.
For orientation: pIC50 means the IC50 on a negative log10 scale, so that one unit is a factor of ten. For the molecule `COc1ccc(-c2nnc(NCc3nccn3C)n3cccc23)c(OC(F)(F)F)c1` [Compound 69, 1-[4-methoxy-2-(trifluoromethoxy)phenyl]-N-[(1-methyl-1H-imidazol-2-yl)methyl]pyrrolo[1,2-d][1,2,4]triazin-4-amine], the negative logarithm of the IC50 (pIC50) was 7.00 to 8.00.
Turning to `Cc1cc2c(-c3ccc(Cl)cc3C(F)F)nnc(N[C@@H]3CCCN(C)C3)n2c1` [Compound 11, 1-[4-chloro-2-(difluoromethyl)phenyl]-7-methyl-N-[(3R)-1-methylpiperidin-3-yl]pyrrolo[1,2-d][1,2,4]triazin-4-amine], the pIC50 is 7.00 to 8.00.
On to `COc1ccc(-c2nnc(Nc3cc[nH]n3)n3cncc23)c(OC(F)F)c1` [Compound 227, 1-[2-(difluoromethoxy)-4-methoxyphenyl]-N-(1H-pyrazol-3-yl)imidazo[1,5-d][1,2,4]triazin-4-amine], for which the pIC50 is 7.00 to 8.00.
In the case of `COc1ccc(-c2nnc(N[C@H]3C[C@@](C)(O)C3)n3cc(C)cc23)c(OC(F)(F)F)c1` [Compound 108, (1s,3s)-3-({1-[4-methoxy-2-(trifluoromethoxy)phenyl]-7-methylpyrrolo[1,2-d][1,2,4]triazin-4-yl}amino)-1-methylcyclobutan-1-ol], the pIC50 was 8.00 to 9.00.
In the case of `Cc1ccc(-c2nnc(N[C@@H]3CCCN(C)C3)n3cncc23)c(OC(F)F)c1` [Compound 202, 1-[2-(difluoromethoxy)-4-methylphenyl]-N-[(3R)-1-methylpiperidin-3-yl]imidazo[1,5-d][1,2,4]triazin-4-amine] it was 8.00 to 9.00.
For `CCN1CCC[C@@H](Nc2nnc(-c3ccc(OC)cc3OC(F)(F)F)c3cncn23)C1` [Compound 209, N-[(3R)-1-ethylpiperidin-3-yl]-1-[4-methoxy-2-(trifluoromethoxy)phenyl]imidazo[1,5-d][1,2,4]triazin-4-amine], the pIC50 is greater than 9.00.
On to `FC(F)Oc1cc(Cl)ccc1-c1nnc(N[C@@H]2CCCOC2)n2cncc12` [Compound 189, 1-[4-chloro-2-(difluoromethoxy)phenyl]-N-[(3R)-oxan-3-yl]imidazo[1,5-d][1,2,4]triazin-4-amine], for which the negative-log IC50 (pIC50) was 7.00 to 8.00.
As for `Cc1ccc(-c2nnc(N[C@@H]3CCCN(C)C3)n3cc(C)cc23)c(C(F)F)c1` [Compound 23, 1-[2-(difluoromethyl)-4-methylphenyl]-7-methyl-N-[(3R)-1-methylpiperidin-3-yl]pyrrolo[1,2-d][1,2,4]triazin-4-amine], the negative-log IC50 (pIC50) was 8.00 to 9.00.
Regarding `OCCN1CCC[C@@H](Nc2nnc(-c3ccc(C(F)(F)F)cc3OC(F)(F)F)c3cccn23)C1` [Compound 120, 2-[(3R)-3-({1-[2-(trifluoromethoxy)-4-(trifluoromethyl)phenyl]pyrrolo[1,2-d][1,2,4]triazin-4-yl}amino)piperidin-1-yl]ethan-1-ol], the pIC50 was greater than 9.00.
Regarding `OCCN1CCC[C@@H](Nc2nnc(-c3ccc(C(F)(F)F)cc3OC(F)(F)F)c3cncn23)C1` [Compound 239, 2-[(3R)-3-({1-[2-(trifluoromethoxy)-4-(trifluoromethyl)phenyl]imidazo[1,5-d][1,2,4]triazin-4-yl}amino)piperidin-1-yl]ethan-1-ol], the pIC50 was greater than 9.00.
`O[C@H]1CCC[C@@H](Nc2nnc(-c3ccc(C(F)(F)F)cc3CC(F)(F)F)c3cncn23)C1` [Compound 262, (1S,3R)-3-({1-[2-(2,2,2-trifluoroethyl)-4-(trifluoromethyl)phenyl]imidazo[1,5-d][1,2,4]triazin-4-yl}amino)cyclohexan-1-ol]: the negative logarithm of the IC50 (pIC50) was greater than 9.00.
Turning to `COc1cccc(C(C)Nc2nnc(-c3ccc(OC)cc3OC(F)(F)F)c3cncn23)c1` (stereo not drawn) [Compound 230, N-[1-(3-methoxyphenyl)ethyl]-1-[4-methoxy-2-(trifluoromethoxy)phenyl]imidazo[1,5-d][1,2,4]triazin-4-amine], the pIC50 is no more than 6.52.
For the molecule `COc1ccc(-c2nnc(N[C@@H]3CCCC[C@@]3(C)O)n3cncc23)c(OC(F)(F)F)c1` (single isomer, unassigned) [Compound 311], the negative logarithm of the IC50 (pIC50) is 8.00 to 9.00.
Consider `CN1CCC[C@@H](CNc2nnc(-c3ccc(C(F)(F)F)cc3CC(F)(F)F)c3cccn23)C1` [Compound 146, N-{[(3S)-1-methylpiperidin-3-yl]methyl}-1-[2-(2,2,2-trifluoroethyl)-4-(trifluoromethyl)phenyl]pyrrolo[1,2-d][1,2,4]triazin-4-amine], for which the pIC50 was 8.00 to 9.00.
In the case of `COc1ccc(-c2nnc(NC3CCNC3=O)n3cccc23)c(CC(F)(F)F)c1` (stereo not drawn) [Compound 139, 3-({1-[4-methoxy-2-(2,2,2-trifluoroethyl)phenyl]pyrrolo[1,2-d][1,2,4]triazin-4-yl}amino)pyrrolidin-2-one] it was 8.00 to 9.00; in that of `O[C@@H]1CCCC[C@@H](Nc2nnc(-c3ccc(C(F)(F)F)cc3CC(F)(F)F)c3cccn23)C1` (racemic) [Compound 129, (1R,3R)-3-({1-[2-(2,2,2-trifluoroethyl)-4-(trifluoromethyl)phenyl]pyrrolo[1,2-d][1,2,4]triazin-4-yl}amino)cycloheptan-1-ol AND (1S,3S)-3-({1-[2-(2,2,2-trifluoroethyl)-4-(trifluoromethyl)phenyl]pyrrolo[1,2-d][1,2,4]triazin-4-yl}amino)cycloheptan-1-ol], 8.00 to 9.00; in that of `COc1ccc(-c2nnc(N[C@@H]3CCCN(CCO)C3)n3cncc23)c(OC(F)(F)F)c1` [Compound 211, 2-[(3R)-3-({1-[4-methoxy-2-(trifluoromethoxy)phenyl]imidazo[1,5-d][1,2,4]triazin-4-yl}amino)piperidin-1-yl]ethan-1-ol], greater than 9.00.
In the case of `COc1ccc(-c2nnc(N[C@@H]3CCC[C@H]3O)n3cncc23)c(OC(F)(F)F)c1` [Compound 221, (1R,2R)-2-({1-[4-methoxy-2-(trifluoromethoxy)phenyl]imidazo[1,5-d][1,2,4]triazin-4-yl}amino)cyclopentan-1-ol] it was 7.00 to 8.00; in that of `CCN1CCC[C@@H](Nc2nnc(-c3ccc(OC)cc3OC(F)(F)F)c3cccn23)C1` [Compound 59], greater than 9.00; in that of `COc1ccc(-c2nnc(NC(C)c3ccccc3)n3cncc23)c(OC(F)(F)F)c1` (stereo not drawn) [Compound 231, 1-[4-methoxy-2-(trifluoromethoxy)phenyl]-N-(1-phenylethyl)imidazo[1,5-d][1,2,4]triazin-4-amine], no more than 6.52.
As for `C[C@@H](Nc1nnc(-c2ccc(C(F)(F)F)cc2OC(F)F)c2cccn12)c1cccc(O)c1` (single isomer, unassigned) [Compound 102], the figure is 8.00 to 9.00.
`COc1ccc(-c2nnc(N[C@H]3C[C@@](C)(O)C3)n3cncc23)c(C(F)(F)C(F)(F)F)c1` [Compound 315, (1s,3s)-3-({1-[4-methoxy-2-(pentafluoroethyl)phenyl]imidazo[1,5-d][1,2,4]triazin-4-yl}amino)-1-methylcyclobutan-1-ol]: the pIC50 was 6.52 to 7.00.
Take `CN1CCC[C@@H](Nc2nnc(-c3ccc(Br)cc3OC(F)(F)F)c3cncn23)C1` [Compound 312, 1-[4-bromo-2-(trifluoromethoxy)phenyl]-N-[(3R)-1-methylpiperidin-3-yl]imidazo[1,5-d][1,2,4]triazin-4-amine]: the pIC50 is greater than 9.00.
In the case of `FC(F)Oc1ccc(-c2nnc(N[C@@H]3CCCOC3)n3cccc23)c(OC(F)(F)F)c1` [Compound 152, 1-[4-(difluoromethoxy)-2-(trifluoromethoxy)phenyl]-N-[(3R)-oxan-3-yl]pyrrolo[1,2-d][1,2,4]triazin-4-amine] it was 8.00 to 9.00.
